# Source: patent US12441725B2, “ISO-citrate dehydrogenase (IDH) inhibitor” (ZHEJIANG METON PHARMACEUTICAL CO., LTD, priority 2019, dated 2025)
# Columns and labels:
# IDH1 R132H = target: T1, IDH1 R132H (Homo sapiens, UniProt O75874, R132H); test: Biochemical assay for IDH inhibition (NADPH fluorescence), mutant IDH1 R132H; settings: 50 nM IDH1-R132H, 1 hour pre-incubation, in triplet
# T1 construct: 6xHis
# Text: (§1) The present disclosure provides a biochemical assay method for detecting the IDH inhibition and selectivity of the compounds by detecting IDH enzyme activity directly.
# (§2) Wild-type IDH enzymes convert NADP^+ to NADPH when catalyzing the α-KG producing reaction. Mutant IDH enzymes convert NADPH to NADP^+ when catalyzing the D-2-HG producing reaction. So, the activity of wild-type and mutant IDH1/2 could be measured by monitoring NADPH level change as NADPH is fluorescent (Excitation 340 nm, Emission 460 nm). By monitoring the change of NADPH level in the reaction, the enzyme activity could be determined rapidly and efficiently and IC50 of a compound could also be assayed.
# (§3) The test compounds are prepared into 50 mM stock solutions in DMSO and stored at −20° C. Each test compound stock is further diluted to obtain a 100× stock solution at a concentration of 400 μM, 200 μM, 100 μM, 50 μM, 25 μM, 12.5 μM, 6.25 μM and 3.125 μM, respectively, for the final use on the day of test (the concentration range of 100× stock solutions might be adjusted to cover the estimated IC50 of a specific test compound).
# (§4) Inhibition of Mutant IDH1 (R132H or R132C):
# (§5) To assay the enzymatic activity of mutant IDH1 proteins, 25 nM IDH1-R132C or 50 nM IDH1-R132H protein solutions are prepared in 20 mM Tris-HCl pH7.5, 150 mM NaCl, 10 mM MgCl2, 1 mM DTT, 0.05 mg/ml BSA and 1.33 mM α-KG. 148 μL 25 nM IDH1-R132C or 50 nM IDH1-R132H protein solutions are mixed with 2 μL DMSO (vehicle control for test compounds) or an above-mentioned 100× stock solution of a test compound and incubated for 1 hour at room temperature. Extra reactions containing 148 μL no-enzyme solution (20 mM Tris-HCl pH7.5, 150 mM NaCl, 10 mM MgCl2, 1 mM DTT, 0.05 mg/ml BSA and 1.33 mM α-KG) and 2 μL DMSO are also set up as background controls. Then each reaction is initiated by adding 50 μL 80 μM NADPH solution prepared in 20 mM Tris-HCl pH7.5, 150 mM NaCl, 10 mM MgCl2, 1 mM DTT and 0.05 mg/ml BSA. BioTek Synergy H1 Microplate reader (BioTek Instruments Inc., Winooski, U.S.) is employed to monitor the NADPH fluorescence (Excitation 340 nm, Emission 460 nm) every 42 seconds for 15 minutes. NADPH change rate is determined according to the linear phase of the fluorescence-time curve and results from the background control reactions are used as background subtraction to calculate the net NADPH change rates of other reactions. The net NADPH change rates from the vehicle control reactions are used as 100% enzymatic activity and thus the relative enzymatic activity of reactions with test compounds added could be determined. Then a dose-response curve is drawn for each test compound and the corresponding IC50 is calculated. The IC50 value is used to evaluate the inhibition and selectivity of each test compound on the IDH enzymatic activity.
# (§6) The IDH inhibition activity of the compounds were assessed according to Test 2 of the Biological Assay section. The test for mutant IDH1 R132H and IDH1 R132C inhibition of each compound was carried out in triplet. As used in Table 5, “A” refers to an inhibitory activity against IDH1 R132H or IDH1 R132C with an IC50<0.1 μM; “B” refers to an inhibitory activity against IDH1 R132H or IDH1 R132C with an IC50 from 0.1 μM to 0.5 μM; “C” refers to an inhibitory activity against IDH1 R132H or IDH1 R132C with an IC50 from 0.5 μM to 1 μM; “D” refers to an inhibitory activity against IDH1 R132H or IDH1 R132C with an IC50>1 μM.
# [1] = target: T2, IDH (endogenous IDH1 R132C) in HT1080 cell (Homo sapiens, UniProt O75874, R132C); test: Cell-based assay for IDH inhibition (decrease of D-2-HG) in HT1080 cells; settings: human fibrosarcoma cell line HT1080, 16 hours treatment, D-2-HG by LC-MS, in triplet
# T2 construct: which harbor endogenous heterozygous IDH1 R132C and R132H mutation respectively and accumulate D-2-HG
# Text: The present disclosure also provides a cell-based method for assaying IDH inhibition and selectivity of the compounds in human fibrosarcoma cell line HT1080 and cholangiocarcinoma cell line HCCC 9810, which harbor endogenous heterozygous IDH1 R132C and R132H mutation respectively and accumulate D-2-HG. Tumor -derived IDH mutant lost its normal activity of producing α-KG, and gained a new activity of producing D-2-HG. D-2-HG is a metabolite specifically elevated in tumor cells expressing mutant IDH1 or IDH2 proteins. When treating such mutant IDH-expressing tumor cells with an effective IDH inhibitor, the synthesis of D-2-HG is blocked, and D-2-HG concentration is decreased by the oxidation reaction catalyzed by the endogenous D-2-HG dehydrogenase.
# To perform a cell-based IDH inhibition assay, HT1080 and HCCC 9810 cells (or other cell lines harboring different IDH mutations) are cultured in DMEM supplemented with 10% FBS. The cells are treated with compounds of present disclosure at various different concentrations. 16 hours after the treatment, culture medium supernatants are removed and cell metabolites are extracted by 40% methanol and 40% acetonitrile in water (pre-chilled under −80° C.) at 4° C. for 1 hour. The extract supernatants are collected and cell debris are removed via high speed centrifugation. The resulting metabolite extracts are analyzed on an Agilent LC-MS system (model: 1290-6470) for 2-HG and glutamate concentration. A HILIC-Z column (2.1 mm×100 mm, […]) is employed on HPLC. Mobile phase A is 15 mM CH3COONH4 and 0.3% NH3·H2O in water. Mobile phase B is 15 mM CH3COONH4 and 0.3% NH3·H2O in 90% MeCN/10% H2O solvent. An 19% solvent A and 81% solvent B isocratic gradient method is used at a flow rate of 0.3 ml/min. D-2-HG is ionized under negative ion spray mode and detected through the multiple-reaction monitoring of a mass transition pair at m/z=147.0/128.9 and 147.0/85.1. Glutamate is ionized under ion spray mode and detected on negative polarity multiple-reaction monitoring of a mass transition pair at m/z=146/102 and 146/128 and its level is used to normalize 2-HG concentration. The activity of cellular mutant IDH proteins in the presence of each test compound at different concentrations can be represented by relative D-2-HG concentration to negative control samples (i.e., cells are treated with DMSO only), and the IC50 value could be determined to evaluate the inhibition and selectivity of each test compound on the IDH enzymatic activity.
# The IDH inhibition activity of the compounds were assessed in human fibrosarcoma cell line HIT1080 according to Test 3 of the Biological Assay section. The test for IDH inhibition of each compound was carried out in triplet. As used in Table 6, “A” refers to an IDH inhibitory activity with an IC50<0.1 μM; “B” refers to an IDH inhibitory activity with an IC50 from 0.1 μM to 0.5 μM; “C” refers to an IDH inhibitory activity with an IC50 from 0.5 μM to 1 μM; “D” refers to an IDH inhibitory activity with an IC50>1 μM.
# IDH1 R132C = target: T3, IDH1 R132C (Homo sapiens, UniProt O75874, R132C); test: Biochemical assay for IDH inhibition (NADPH fluorescence), mutant IDH1 R132C; settings: 25 nM IDH1-R132C, 1 hour pre-incubation, in triplet
# T3 construct: 6xHis
# Text: as §1, §2, §3, §4, §5, §6
# T1 sequence (O75874 whole entry R132H): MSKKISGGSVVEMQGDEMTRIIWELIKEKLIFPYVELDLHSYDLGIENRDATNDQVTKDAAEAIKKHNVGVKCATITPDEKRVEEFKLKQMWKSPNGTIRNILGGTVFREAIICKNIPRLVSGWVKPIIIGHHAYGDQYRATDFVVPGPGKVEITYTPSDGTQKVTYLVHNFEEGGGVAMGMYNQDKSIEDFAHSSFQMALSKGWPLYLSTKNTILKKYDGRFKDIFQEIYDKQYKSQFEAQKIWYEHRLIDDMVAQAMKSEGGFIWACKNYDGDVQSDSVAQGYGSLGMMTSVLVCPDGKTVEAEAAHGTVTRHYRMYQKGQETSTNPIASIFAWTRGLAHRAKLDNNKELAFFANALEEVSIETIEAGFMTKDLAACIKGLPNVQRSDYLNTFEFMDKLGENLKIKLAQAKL
# T3 sequence (O75874 whole entry R132C): as the sequence (O75874 whole entry R132H) above, with H132C counted along it
# T2 sequence (O75874 2-414 R132C): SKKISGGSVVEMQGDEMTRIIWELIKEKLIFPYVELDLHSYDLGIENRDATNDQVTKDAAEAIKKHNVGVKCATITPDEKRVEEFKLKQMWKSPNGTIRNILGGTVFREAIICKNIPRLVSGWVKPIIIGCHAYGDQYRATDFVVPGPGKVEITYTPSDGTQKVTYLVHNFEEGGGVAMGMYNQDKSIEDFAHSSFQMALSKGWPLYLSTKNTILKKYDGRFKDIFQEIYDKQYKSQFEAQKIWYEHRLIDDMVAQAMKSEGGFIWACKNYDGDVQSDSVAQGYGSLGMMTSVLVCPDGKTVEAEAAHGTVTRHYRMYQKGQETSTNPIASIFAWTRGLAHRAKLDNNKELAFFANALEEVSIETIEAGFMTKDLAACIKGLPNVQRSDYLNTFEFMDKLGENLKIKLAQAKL
compound,measurement,setting,value
"CCN1Cc2c(ccnc2N[C@@H](C)c2ccc(Oc3cccnc3)c(F)c2)C1=O [Compound 13, (S)-2-ethyl-4-((1-(3-fluoro-4-(pyridin-3-yloxy)phenyl)ethyl)amino)-2,3-dihydro-1H-pyrrolo[3,4-c]pyridin-1-one]",IC50,IDH1 R132H,> 1000 nM
same,IC50,[1],> 1000 nM
same,IC50,IDH1 R132C,> 1000 nM
"CCN1Cc2c(ccnc2N[C@@H](C)c2ccc(OC3CCCCC3)c(F)c2)C1=O [Compound 14, (S)-4-((1-(4-(cyclohexyloxy)-3-fluorophenyl)ethyl)amino)-2-ethyl-2,3-dihydro-1H-pyrrolo[3,4-c]pyridin-1-one]",IC50,IDH1 R132H,> 1000 nM
same,IC50,[1],> 1000 nM
same,IC50,IDH1 R132C,> 1000 nM
"CCN1Cc2c(ccnc2N[C@@H](C)c2ccc(OC3CCCC3)c(F)c2)C1=O [Compound 15, (S)-4-((1-(4-(cyclopentyloxy)-3-fluorophenyl)ethyl)amino)-2-ethyl-2,3-dihydro-1H-pyrrolo[3,4-c]pyridin-1-one]",IC50,IDH1 R132H,100 to 500 nM
same,IC50,[1],> 1000 nM
same,IC50,IDH1 R132C,500 to 1000 nM
"Cc1ccc(Oc2ccc([C@H](C)Nc3nccc4c3CN(CCF)C4=O)cc2F)cc1 [Compound 16, (S)-4-((1-(3-fluoro-4-(p-tolyloxy)phenyl)ethyl)amino)-2-(2-fluoroethyl)-2,3-dihydro-1H-pyrrolo[3,4-c]pyridin-1-one]",IC50,IDH1 R132H,500 to 1000 nM
same,IC50,[1],> 1000 nM
same,IC50,IDH1 R132C,500 to 1000 nM
"Cc1ccc(Oc2ccc([C@H](C)Nc3nccc4c3CN(CC(F)F)C4=O)cc2F)cc1 [Compound 17, (S)-2-(2,2-difluoroethyl)-4-((1-(3-fluoro-4-(p-tolyloxy)phenyl)ethyl)amino)-2,3-dihydro-1H-pyrrolo[3,4-c]pyridin-1-one]",IC50,IDH1 R132H,100 to 500 nM
same,IC50,[1],> 1000 nM
same,IC50,IDH1 R132C,100 to 500 nM
"CCN1Cc2c(N[C@@H](C)c3ccc(Oc4ccc(C)cc4)c(F)c3)ncc(F)c2C1=O [Compound 18, (S)-2-ethyl-7-fluoro-4-((1-(3-fluoro-4-(p-tolyloxy)phenyl)ethyl)amino)-2,3-dihydro-1H-pyrrolo[3,4-c]pyridin-1-one]",IC50,IDH1 R132H,100 to 500 nM
same,IC50,[1],> 1000 nM
same,IC50,IDH1 R132C,> 1000 nM
"CCN1Cc2c(N[C@@H](C)c3ccc(OC4CCCC4)c(F)c3)ncc(F)c2C1=O [Compound 19, (S)-4-((1-(4-(cyclopentyloxy)-3-fluorophenyl)ethyl)amino)-2-ethyl-7-fluoro-2,3-dihydro-1H-pyrrolo[3,4-c]pyridin-1-one]",IC50,IDH1 R132H,> 1000 nM
same,IC50,[1],> 1000 nM
same,IC50,IDH1 R132C,> 1000 nM
"CCN1Cc2c(ccnc2N[C@@H](C)c2cc(F)c(Oc3ccc(C)cc3)cc2F)C1=O [Compound 20, (S)-4-((1-(2,5-difluoro-4-(p-tolyloxy)phenyl)ethyl)amino)-2-ethyl-2,3-dihydro-1H-pyrrolo[3,4-c]pyridin-1-one]",IC50,IDH1 R132H,100 to 500 nM
same,IC50,[1],500 to 1000 nM
same,IC50,IDH1 R132C,100 to 500 nM
"CCN1Cc2c(ccnc2N[C@@H](C)c2cc(F)c(Oc3ccc4c(ccn4C)c3)cc2F)C1=O [Compound 21, (S)-4-((1-(2,5-difluoro-4-((1-methyl-1H-indol-5-yl)oxy)phenyl)ethyl)amino)-2-ethyl-2,3-dihydro-1H-pyrrolo[3,4-c]pyridin-1-one]",IC50,IDH1 R132H,< 100 nM
same,IC50,[1],> 1000 nM
same,IC50,IDH1 R132C,100 to 500 nM
"CCN1Cc2c(ccnc2N[C@@H](C)c2cc(F)c(OC3CC(C)CC(C)(C)C3)cc2F)C1=O (stereo partly drawn) [Compound 22, 4-(((1S)-1-(2,5-difluoro-4-((3,3,5-trimethylcyclohexyl)oxy)phenyl)ethyl)amino)-2-ethyl-2,3-dihydro-1H-pyrrolo[3,4-c]pyridin-1-one]",IC50,IDH1 R132H,< 100 nM
same,IC50,[1],< 100 nM
same,IC50,IDH1 R132C,< 100 nM
"CCN1Cc2c(ccnc2N[C@@H](C)c2cc(F)c(O[C@@H]3C[C@@H](C)CC(C)(C)C3)cc2F)C1=O [Compound 23, 4-(((S)-1-(2,5-difluoro-4-(((1R,5S)-3,3,5-trimethylcyclohexyl)oxy)phenyl)ethyl)amino)-2-ethyl-2,3-dihydro-1H-pyrrolo[3,4-c]pyridin-1-one]",IC50,IDH1 R132H,< 100 nM
same,IC50,[1],< 100 nM
same,IC50,IDH1 R132C,< 100 nM
"CCN1Cc2c(ccnc2N[C@@H](C)c2cc(F)c(O[C@H]3C[C@@H](C)CC(C)(C)C3)cc2F)C1=O [Compound 24, 4-(((S)-1-(2,5-difluoro-4-(((1S,5S)-3,3,5-trimethylcyclohexyl)oxy)phenyl)ethyl)amino)-2-ethyl-2,3-dihydro-1H-pyrrolo[3,4-c]pyridin-1-one]",IC50,IDH1 R132H,< 100 nM
same,IC50,[1],< 100 nM
same,IC50,IDH1 R132C,< 100 nM
"CCN1Cc2c(ccnc2N[C@@H](C)c2ccc(Oc3ccnc(C(C)(C)C)c3)c(F)c2)C1=O [Compound 25, (S)-4-((1-(4-((2-(tert-butyl)pyridin-4-yl)oxy)-3-fluorophenyl)ethyl)amino)-2-ethyl-2,3-dihydro-1H-pyrrolo[3,4-c]pyridin-1-one]",IC50,IDH1 R132H,100 to 500 nM
same,IC50,[1],500 to 1000 nM
same,IC50,IDH1 R132C,100 to 500 nM
